The logP is a log measure of how a compound divides between an organic and an aqueous phase. Read a low logP as a more hydrophilic compound.

Data set [1] deals with convulsions in mice induced by electrical stimulation. As to the kind of experiment: anticonvulsant effect on mice induced by electrical stimulation. The class given is in vivo. The note with it: compared with blank group. As to the method: (1) Divide 40 mice (20♀20) into 5 groups at random, with 8 mice (4♀4) in each group, and label No. 1 to No. 8 with picric acid respectively; (2) All mice were tested according to the order of groups and labels electrical stimulation, the initial voltage was 40V, the voltage was increased by 2.5V each time, the time interval between two electrical stimulations for the same mouse was 20 min, the threshold voltage value of convulsion and the time from convulsion to complete recovery were recorded, and the dead mice were discarded, qualified mice were screened; (3) After screening, 7 mice (2♀5) in the 40 mice could not recover after convulsions and died, and the remaining 33 qualified mice […]; (4) From standby 7 mice were screened out as a supplement, and the number of the dead mice in step (2) was marked with picric acid and added to the corresponding groups, so that a total of 40 (20♀20) qualified mice in 5 groups were finally obtained., all mice were weighed and recorded.
Positive drug: sodium valproate (specification 0.2 g), take 1 tablet in a mortar, add 20 ml of 0.5% CMC-Na solution while grinding, to a suspended state, set EP tube for use; test drug (compound 5): Dissolve in distilled water to 5, 10, and 20 mg/ml solutions, respectively, and set EP tubes for later use.
Electrical stimulation was performed 1.5 hours after the last administration, and each mouse was given the threshold voltage measured before to observe the experimental phenomenon and record whether there was convulsions and death occurred.
The first group was the blank control group, which was given 0.4 ml/20 g of 0.5% CMC-Na by gavage; the second group was the positive drug control group, which was given sodium valproate 200 mg/kg by gavage; the third group was the test drug the low-dose group, which was given 100 mg/kg of compound 5 by gavage; the fourth group was the test drug medium-dose group, which was given 200 mg/kg of compound 5 by gavage; the fifth group was the test drug high-dose group, which was given 400 mg/kg of compound 5 by gavage.
1.5 h after the last administration, electrical stimulation was performed according to the threshold voltage measured before each mouse, the experimental phenomenon was observed, and the occurrence of convulsions and death were recorded. If convulsion occurs, record the time of complete recovery; if no convulsion occurs, continue to increase the voltage with a gradient of 2.5V to measure the current threshold voltage value and recovery time.
Strictly follow the 5 periods of convulsion in mice, namely, latency period, rigid flexion period, hindlimb extension period, clonic period and recovery period to judge whether the mice have convulsions after electrical stimulation, and the phenomenon of death can not be recovered after convulsions.

Data set [2] is described as follows: stability (degradation test) in acidified plasma. Particulars: for Sample Peak Average: rat, 5 μmol/ml. It counts as in vitro ADME, rat. Here is the method: • a: Compound 5 prepared in Example 5 was dissolved in purified water to prepare solution A with a concentration of 10 mg/ml; 150 μl of solution A was added to 660 μl of pre-warmed plasma (37° C.), and the pH was adjusted with 0.1% acetic acid to dissolve the sample clear to obtain solution B; • b: Solution B (5 μmol/ml) was stirred in a water bath at 37° C. for a certain period of time (1 min, 2 min, 4 min, 8 min, 16 min, 30 min, 1 h, 2 h, 4 h) and 50 μl was sampled at each time point; • c: 50 μl of the sampled solution was added to 950 μl methanol (0.1% AcH) to precipitate plasma proteins, resulting in mixture C. • d: The mixture C was vortexed for 1 s, centrifuged at 12000 r for 3 min, and the supernatant was taken for testing.
Liquid phase detection: take 10 μl of the supernatant after the above centrifugation into a sample for measurement.

In data set [3] the test system is lipopolysaccharide-induced depression mouse model. As to the kind of experiment: lipopolysaccharide-induced depression mouse model (open field, forced swimming test, body weight). It counts as in vivo, ICR mice. Here is the method: Positive drug: fluoxetine hydrochloride capsule (specification 20 mg), take the content in a mortar, add 40 ml of 0.5% CMC-Na solution while grinding, to a suspended state, set EP tube for use; test drug (compound 5): dissolve into 5, 10, and 20 mg/ml solutions in distilled water, respectively, and put them in EP tubes for later use; modeling drug (LPS): take a frozen lipopolysaccharide PBS solution (1.2 mg: 1.2 ml), and after thawing Use a pipette to take 1 ml into the EP tube, replace with a new pipette tip and pipette 9 ml of normal saline into the EP tube, shake well for use.
Except for the first group (blank control group), other groups of animals were intraperitoneally injected with LPS 2 h before the last administration on the 7th day to the mice in the model group, the positive drug group, and the low, middle and high dose groups of the test drug.
The first group was the blank control group, which was given 0.5% CMC-Na 0.2 ml/20 g by gavage; the second group was the model group, which was given 0.5% CMC-Na by gavage; the third group was the positive drug group, which was given by gavage Flunarizine hydrochloride (sibilin) 1 mg/kg; the fourth group was the low-dose group of the test drug, which was given 100 mg/kg of compound 5 by gavage; the fifth group was the medium-dose group of the test drug, which was given 200 mg/kg by gavage. kg of compound 5; the sixth group was the test drug high-dose group, and 400 mg/kg of compound 5 was administered by gavage. The drug was administered for one week, and the second to sixth groups were intraperitoneally injected with 1 mg/kg (0.2 ml/20 g) of LPS on the seventh day to establish a model.
On the 7th day, before the last administration and modeling, the effect of the drug on the spontaneous activity of the mice should be investigated, and it is excluded that the drug increases the spontaneous activity of the mice and interferes with the immobility time in the forced swimming experiment. The total migration distance of each mouse in the open field (50×50×50 cm) within 5 min was calculated using the open field experimental instrument and related computer software. Before the data collection, each mouse was given 5 min to familiarize with the open field environment, after each mouse was tested, its excrement was removed and the odor was eliminated with an alcohol spray bottle.
Because the air temperature is low, it is appropriate to control the water temperature by adding hot water to the cylinder.
In the spontaneous activity, the behavioral index selects the total migration distance of mice in the open field within 5 minutes,
by tracking the movement trajectory of mice through monitoring devices, and using computer software, the total distance of movement can be directly obtained; in the FST experiment, the mice were placed in a into a transparent cylinder filled with warm water (about 25° C.) for 6 minutes, the mice will experience struggling, swimming and floating behaviors, the time when the mice stop struggling to float on the water surface is identified as a state of despair caused by depression, by using monitoring equipment and computer software to statistically analyze the state of mice after 4 minutes, the total “Immobility time” can be directly obtained.

Counter-ions that a name gives are not always drawn.

Turning to `CC(C)c1cccc(C(C)C)c1OC(=O)CC1(CN(C)C)CCCCC1` [Compound 5, 2,6-diisopropylphenyl 2-(1-((dimethylamino)methyl)cyclohexyl)acetate hydrochloride], the “anti-electrical convulsion ability (threshold voltage increase)” value in data set [1] (100 mg/kg gavage, p>0.05) is recorded as “no significant effect”; in data set [1] (200 mg/kg gavage, p>0.05), “no significant effect”; in data set [1] (400 mg/kg gavage, p<0.01) it was “significantly improve”. In data set [1] (sodium valproate 200 mg/kg, compound 5 100, 200, 400 mg/kg gavage, p>0.05), the “weight gain of mice” value is reported as “no difference”. In data set [2] (plasma acidified with 0.1% acetic acid, 37° C., up to 2 h), the “degradation / stability in acidified plasma” value is recorded as “not significantly degraded”. Besides, the “Sample Peak Average” value in data set [2] (1 min) is 196752060; in data set [2] (2 min), 189140125; in data set [2] (4 min), 184526452; in data set [2] (8 min) it was 182379068; in data set [2] (16 min), 176475001; in data set [2] (30 min) it was 179508039. Besides, the “Sample Peak Average” value in data set [2] (1 h) was determined as 175087504; in data set [2] (2 h), 171193983. In addition, the “effect on body weight of mice” value in data set [3] (compound 5 100, 200, 400 mg/kg and positive drug, gavage for one week) was “no significant effect”. Besides, the “alleviation of depressive behavior caused by LPS” value in data set [3] (compound 5 100, 200, 400 mg/kg and positive drug, gavage for one week, no statistical difference found) was “certain alleviation effect”. Also, the “spontaneous activity: total migration distance in open field within 5 minutes” value in data set [3] (reference blank group, day 7 before last administration, all dose groups, p>0.05) was “no significant effect”. Further, the FST immobility time entry in data set [3] (reference model group, compound 5 100, 200, 400 mg/kg and positive drug, gavage for one week, 4 h after LPS) is on record as “not significantly different (p>0.05)”. Besides, in “physchem”, the log partition coefficient (logP) is 1.37.

Source of the values: patent US20250082760A1 (priority 2020, published 2025).
